Source: ChEMBL document CHEMBL1124454, “2,3-Dihydro-5-benzofuranols as antioxidant-based inhibitors of leukotriene biosynthesis” (J Med Chem, 1989)

Tests used:
Homo sapiens [1] = organism: Homo sapiens; experiment: cells
physchem = details: octanol/water
Description: Partition coefficient (logP)

Homo sapiens [2] = organism: Homo sapiens; experiment: Inhibitory activity against Leukotriene (LTB4) biosynthesis in isolated human polymorphonuclear cells (PMNs); not active; format: functional

**Q.** For `CC(C)c1cc2c(cc1O)CCO2`, which IC50 (Homo sapiens [1]) is on record?
**A.** The IC50 was 300 nM.

**Q.** And the logP (physchem)?
**A.** The logP was 3.3.

**Q.** With `Oc1ccc2c(c1CCCSCc1cccnc1)CCO2` as the molecule, how does the IC50 (Homo sapiens [1]) read?
**A.** Its IC50 is 2000 nM.

**Q.** What about the logP (physchem) of the same molecule?
**A.** Its logP is 3.3.

**Q.** Which results are given for `OCCc1ccccc1OCCCc1cc2c(cc1O)CCO2`?
**A.** IC50 (Homo sapiens [1]): 290 nM; logP (physchem): 3.5

**Q.** With `Oc1cc2c(cc1CCCOc1ccccc1)OCC2` as the molecule, how does the IC50 (Homo sapiens [1]) read?
**A.** Its IC50 is 57 nM.

**Q.** And the logP (physchem)?
**A.** Its logP is 4.3.

**Q.** For `Oc1cc2c(cc1CCCOc1ccc(Cl)cc1)OCC2`, which IC50 (Homo sapiens [1]) is on record?
**A.** The IC50 was 55 nM.

**Q.** And the logP (physchem)?
**A.** The logP was 5.1.

**Q.** Which results are given for `Oc1cc2c(cc1CCCNc1ccccc1)OCC2`?
**A.** IC50 (Homo sapiens [1]): 140 nM; logP (physchem): 3.8

**Q.** Which results are given for `Oc1cc2c(cc1Sc1cccnc1)OCC2`?
**A.** IC50 (Homo sapiens [1]): 1200 nM; logP (physchem): 2.8

**Q.** For `O=C(O)c1ccccc1OCCCOc1cc2c(cc1O)CCO2`, which IC50 (Homo sapiens [2]) is on record?
**A.** The IC50 was “Not Active”.

**Q.** With `Oc1ccc2c(c1)CCO2` as the molecule, how does the IC50 (Homo sapiens [1]) read?
**A.** The IC50 was 4000 nM.

**Q.** And the logP (physchem)?
**A.** The logP was 1.7.

**Q.** For `Oc1ccc2c(c1CCCNc1ccccc1)CCO2`, which IC50 (Homo sapiens [1]) is on record?
**A.** The IC50 was 1400 nM.

**Q.** What about the logP (physchem) of the same molecule?
**A.** Its logP is 3.8.

**Q.** Which IC50 (Homo sapiens [1]) does the source give for `Oc1cc2c(cc1OCCCOc1ccccc1)OCC2` here?
**A.** The IC50 was 320 nM.

**Q.** And the logP (physchem)?
**A.** Its logP is 3.4.

**Q.** Which results are given for `Oc1cc2c(cc1CCCOc1ccc(F)cc1)OCC2`?
**A.** IC50 (Homo sapiens [1]): 28 nM; logP (physchem): 4.5

**Q.** With `Oc1cc2c(cc1Sc1ccccn1)OCC2` as the molecule, how does the IC50 (Homo sapiens [1]) read?
**A.** Its IC50 is 2800 nM.

**Q.** What about the logP (physchem) of the same molecule?
**A.** Its logP is 2.8.

**Q.** Which results are given for `OCCCc1cc2c(cc1O)CCO2`?
**A.** IC50 (Homo sapiens [1]): 10000 nM; logP (physchem): 1.4

**Q.** Which results are given for `CCCCOc1cc2c(cc1O)CCO2`?
**A.** IC50 (Homo sapiens [1]): 180 nM; logP (physchem): 3.1

**Q.** With `Oc1cc2c(cc1Oc1ccccc1)OCC2` as the molecule, how does the IC50 (Homo sapiens [1]) read?
**A.** Its IC50 is 420 nM.

**Q.** And the logP (physchem)?
**A.** Its logP is 3.7.

**Q.** Which results are given for `Oc1cc2c(cc1Sc1ccccc1)OCC2`?
**A.** IC50 (Homo sapiens [1]): 140 nM; logP (physchem): 4.1

**Q.** What does the source list for `Oc1cc2c(cc1SCc1ccccc1)OCC2`?
**A.** IC50 (Homo sapiens [1]): 110 nM; logP (physchem): 4.1

**Q.** For `O=C(O)Cc1ccc(OCCCOc2cc3c(cc2O)CCO3)cc1`, which IC50 (Homo sapiens [2]) is on record?
**A.** Its IC50 is “Not Active”.

**Q.** For `CCCc1cc2c(c(Br)c1O)CCO2`, which IC50 (Homo sapiens [1]) is on record?
**A.** Its IC50 is 65 nM.

**Q.** What about the logP (physchem) of the same molecule?
**A.** Its logP is 4.3.

**Q.** What does the source list for `COC(=O)c1cccc(OCCCOc2cc3c(cc2O)CCO3)c1`?
**A.** IC50 (Homo sapiens [1]): 68 nM; logP (physchem): 3.7

**Q.** With `CCCc1c(O)ccc2c1CCO2` as the molecule, how does the IC50 (Homo sapiens [1]) read?
**A.** Its IC50 is 1000 nM.

**Q.** What about the logP (physchem) of the same molecule?
**A.** Its logP is 3.4.

**Q.** Which results are given for `Oc1cc2c(cc1Cc1ccccc1)OCC2`?
**A.** IC50 (Homo sapiens [1]): 280 nM; logP (physchem): 3.9

**Q.** Which IC50 (Homo sapiens [1]) does the source give for `CCCc1ccc(OCCCc2cc3c(cc2O)CCO3)cc1` here?
**A.** The IC50 was 9 nM.

**Q.** And the logP (physchem)?
**A.** The logP was 6.

**Q.** With `OCCc1cccc(OCCCc2cc3c(cc2O)CCO3)c1` as the molecule, how does the IC50 (Homo sapiens [1]) read?
**A.** Its IC50 is 60 nM.

**Q.** And the logP (physchem)?
**A.** The logP was 3.5.

**Q.** For `COC(=O)Cc1ccc(OCCCOc2cc3c(cc2O)CCO3)cc1`, which IC50 (Homo sapiens [1]) is on record?
**A.** The IC50 was 120 nM.

**Q.** And the logP (physchem)?
**A.** The logP was 3.1.

**Q.** For `CC(C)(C)c1c(O)ccc2c1CCO2`, which IC50 (Homo sapiens [1]) is on record?
**A.** The IC50 was 730 nM.

**Q.** And the logP (physchem)?
**A.** The logP was 3.7.

**Q.** Which results are given for `CCCOc1cc2c(cc1O)CCO2`?
**A.** IC50 (Homo sapiens [1]): 470 nM; logP (physchem): 2.6

**Q.** With `COC(=O)c1ccc(OCCCOc2cc3c(cc2O)CCO3)cc1` as the molecule, how does the IC50 (Homo sapiens [1]) read?
**A.** The IC50 was 71 nM.

**Q.** And the logP (physchem)?
**A.** Its logP is 3.7.

**Q.** Which results are given for `Oc1cc2c(cc1CCCSc1ccccc1)OCC2`?
**A.** IC50 (Homo sapiens [1]): 19 nM; logP (physchem): 4.9

**Q.** With `CCCc1cc2c(c(C)c1O)CCO2` as the molecule, how does the IC50 (Homo sapiens [1]) read?
**A.** The IC50 was 160 nM.

**Q.** What about the logP (physchem) of the same molecule?
**A.** The logP was 4.1.

**Q.** For `Oc1cc2c(cc1SCCCc1ccccc1)OCC2`, which IC50 (Homo sapiens [1]) is on record?
**A.** Its IC50 is 28 nM.

**Q.** And the logP (physchem)?
**A.** The logP was 4.9.

**Q.** What does the source list for `CC(C)(C)c1cc2c(cc1O)CCO2`?
**A.** IC50 (Homo sapiens [1]): 790 nM; logP (physchem): 3.7

**Q.** Which IC50 (Homo sapiens [1]) does the source give for `CCCc1cc2c(cc1O)CCO2` here?
**A.** Its IC50 is 290 nM.

**Q.** And the logP (physchem)?
**A.** The logP was 3.4.

**Q.** With `OCCc1ccc(OCCCc2cc3c(cc2O)CCO3)cc1` as the molecule, how does the IC50 (Homo sapiens [1]) read?
**A.** Its IC50 is 340 nM.

**Q.** And the logP (physchem)?
**A.** Its logP is 3.5.

**Q.** With `O=C1CCN(c2ccccc2)N1` [PHENIDONE] as the molecule, how does the IC50 (Homo sapiens [1]) read?
**A.** The IC50 was 8000 nM.

**Q.** For `Oc1cc2c(cc1Sc1ccncc1)OCC2`, which IC50 (Homo sapiens [1]) is on record?
**A.** Its IC50 is 2600 nM.

**Q.** What about the logP (physchem) of the same molecule?
**A.** The logP was 2.8.

**Q.** Which IC50 (Homo sapiens [1]) does the source give for `C=CCc1cc2c(cc1O)CCO2` here?
**A.** Its IC50 is 480 nM.

**Q.** What about the logP (physchem) of the same molecule?
**A.** The logP was 2.9.

**Q.** Which IC50 (Homo sapiens [1]) does the source give for `N#CCCCc1cc2c(cc1O)CCO2` here?
**A.** The IC50 was 1400 nM.

**Q.** What about the logP (physchem) of the same molecule?
**A.** Its logP is 1.8.

**Q.** For `Oc1ccc2c(c1CCCOc1ccccc1)CCO2`, which IC50 (Homo sapiens [1]) is on record?
**A.** Its IC50 is 290 nM.

**Q.** And the logP (physchem)?
**A.** Its logP is 4.3.

**Q.** Which results are given for `C=CCc1c(O)ccc2c1CCO2`?
**A.** IC50 (Homo sapiens [1]): 2100 nM; logP (physchem): 2.9

**Q.** Which results are given for `Cc1c(O)c(CCCSc2ccccc2)cc2c1CCO2`?
**A.** IC50 (Homo sapiens [1]): 19 nM; logP (physchem): 5.9

**Q.** Which IC50 (Homo sapiens [1]) does the source give for `OCCCc1c(O)ccc2c1CCO2` here?
**A.** The IC50 was 33000 nM.

**Q.** What about the logP (physchem) of the same molecule?
**A.** Its logP is 1.4.

**Q.** For `Oc1ccc2c(c1CCCSc1ccccc1)CCO2`, which IC50 (Homo sapiens [1]) is on record?
**A.** The IC50 was 120 nM.

**Q.** And the logP (physchem)?
**A.** The logP was 4.9.

**Q.** For `O=C(O)c1cccc(OCCCOc2cc3c(cc2O)CCO3)c1`, which IC50 (Homo sapiens [1]) is on record?
**A.** The IC50 was 5100 nM.

**Q.** What does the source list for `C=CCc1cc2c(c(C)c1O)CCO2`?
**A.** IC50 (Homo sapiens [1]): 130 nM; logP (physchem): 3.5

**Q.** For `COC(=O)c1ccccc1OCCCOc1cc2c(cc1O)CCO2`, which IC50 (Homo sapiens [1]) is on record?
**A.** The IC50 was 47 nM.

**Q.** And the logP (physchem)?
**A.** Its logP is 3.4.

**Q.** With `O=C(O)CCCc1cc2c(cc1O)CCO2` as the molecule, how does the IC50 (Homo sapiens [2]) read?
**A.** Its IC50 is “Not Active”.

**Q.** With `CCCc1cc2c(c(C(C)(C)C)c1O)CCO2` as the molecule, how does the IC50 (Homo sapiens [1]) read?
**A.** Its IC50 is 430 nM.

**Q.** What about the logP (physchem) of the same molecule?
**A.** The logP was 5.4.

**Q.** Which IC50 (Homo sapiens [1]) does the source give for `Oc1cc2c(cc1OCCCc1ccccc1)OCC2` here?
**A.** Its IC50 is 51 nM.

**Q.** And the logP (physchem)?
**A.** Its logP is 4.2.

**Q.** Which results are given for `COCCOc1cc2c(cc1O)CCO2`?
**A.** IC50 (Homo sapiens [1]): 3200 nM; logP (physchem): 1.3

**Q.** Which results are given for `Oc1cc2c(cc1SCCc1ccccc1)OCC2`?
**A.** IC50 (Homo sapiens [1]): 66 nM; logP (physchem): 4.4

**Q.** Which results are given for `Oc1cc2c(cc1CCCSCc1cccnc1)OCC2`?
**A.** IC50 (Homo sapiens [1]): 280 nM; logP (physchem): 3.3
